# Measurements from US4698352A, “4-oxo-1,4-dihydronicotinic acid derivatives, salts thereof, and antibacterial agents containing the same” (Toyama Chemical Co., Ltd., priority 1982, dated 1987).
# Where two headings read alike, the source gives them in different places.
# Assays:
# Experiment in all cases: Antibacterial activity (MIC), agar dilution
# Format in all cases: cell-based
# [1] = system: Ps. aeruginosa GN918**; conditions: Pseudomonas aeruginosa, Ps. aeruginosa GN918, cephalospolinase-producing, 10^6 cells per ml
# Text: (§1) The amount of bacteria inoculated was 10^4 cells per plate (10^6 cells per ml).
# (§2) ** Cephalospolinase-producing bacteria
# [2] = system: Pro. vulgaris GN76**; conditions: Proteus vulgaris
# Text: as §1, §2
# [3] = system: E. coli GN5482**; conditions: Escherichia coli, 20 h; E. coli GN5482, cephalospolinase-producing; 10^6 cells per ml; read-out: MIC
# Text: as §1, §2
# [4] = system: Kl. pneumoniae Y-4*; conditions: Klebsiella pneumoniae, 20 h, Kl. pneumoniae Y-4, penicillinase-producing; 10^6 cells per ml; read-out: MIC
# Text: as §1
# (§3) * Penicillinase-producing bacteria
# [5] = system: E. coli TK-3*; conditions: Escherichia coli, 20 h
# Text: as §1, §3
# [6] = system: Ps. aeruginosa GN3379*; conditions: Pseudomonas aeruginosa, Ps. aeruginosa GN3379, penicillinase-producing, 10^6 cells per ml
# Text: as §1, §3
# [7] = system: St. aureus F-137*; conditions: Staphylococcus aureus, 20 h, St. aureus F-137, penicillinase-producing; 10^6 cells per ml; read-out: MIC
# Text: as §1, §3
# [8] = system: E. coli TK-111; conditions: Escherichia coli, TK111, 20 h
# Text: as §1
# [9] = system: St. aureus FDA209P; conditions: Staphylococcus aureus, FDA209P, 20 h, St. aureus FDA209P; 10^6 cells per ml; 37° C., 20 hours; read-out: MIC
# Text: as §1
# [10] = system: Kl. pneumoniae Y-41; conditions: Klebsiella pneumoniae, Y41, 10^6 cells per ml, 37° C., 20 hours, read-out: MIC
# Text: as §1
# [11] = system: E. coli NIHJ JC-2; conditions: Escherichia coli, NIHJJC2, 20 h
# Text: as §1
# [12] = system: Ps. aeruginosa IFO3445; conditions: Pseudomonas aeruginosa
# Text: as §1
# [13] = system: Pro. vulgaris GN3027; conditions: Proteus vulgaris, GN3027, 20 h, Pro. vulgaris GN3027; 10^6 cells per ml; 37° C., 20 hours; read-out: MIC
# Text: as §1
# [14] = system: Ps. aeruginosa S-68; conditions: Pseudomonas aeruginosa
# Text: as §1
# [15] = system: Pro. mirabilis T-111; conditions: Proteus mirabilis, 37° C.
# Text: as §1
# [16] = system: Kl. pneumoniae Y-50; conditions: Klebsiella pneumoniae, Y50, 20 h, 10^6 cells per ml, 37° C., read-out: MIC
# Text: as §1
# [17] = system: Ent. cloacae IID977; conditions: Enterobacter cloacae, IID977, 20 h
# Text: as §1
# [18] = system: Pro. morganii T-216; conditions: Morganella morganii, 37° C.
# Text: as §1
# [19] = system: Aci. antitratus A-6; conditions: 20 h, Aci. antitratus A-6; 10^6 cells per ml; 37° C., 20 hours; read-out: MIC
# Text: as §1
# [20] = 20 h, Pro. vulgaris GN76, cephalospolinase-producing, 10^6 cells per ml, read-out: MIC
# [21] = E. coli TK-3, penicillinase-producing, 10^6 cells per ml, read-out: MIC
# [22] = E. coli TK-111, 10^6 cells per ml, 37° C., 20 hours, read-out: MIC
# [23] = E. coli NIHJ JC-2, 10^6 cells per ml, 37° C., 20 hours, read-out: MIC
# [24] = Ps. aeruginosa IFO3445, 10^6 cells per ml, 37° C., 20 hours, read-out: MIC
# [25] = S68, Ps. aeruginosa S-68, 10^6 cells per ml, 37° C., 20 hours, read-out: MIC
# [26] = T111, 10^6 cells per ml, 20 hours, read-out: MIC
# [27] = Ent. cloacae IID977, 10^6 cells per ml, 37° C., 20 hours, read-out: MIC
# [28] = T216, 10^6 cells per ml, 20 hours, read-out: MIC
Structure (SMILES),"MIC ([1]; 20 h, read-out: MIC) [µg/mL]","MIC [2, 20] [µg/mL]",MIC [3] [µg/mL],MIC [4] [µg/mL],"MIC [5, 21] [µg/mL]","MIC ([6]; 20 h, read-out: MIC) [µg/mL]",MIC [7] [µg/mL],"MIC [8, 22] [µg/mL]",MIC [9] [µg/mL],MIC [10] [µg/mL],"MIC [11, 23] [µg/mL]","MIC [12, 24] [µg/mL]",MIC [13] [µg/mL],"MIC [14, 25] [µg/mL]","MIC [15, 26] [µg/mL]",MIC [16] [µg/mL],"MIC [17, 27] [µg/mL]","MIC [18, 28] [µg/mL]",MIC [19] [µg/mL],"MIC ([15]; T111, 20 h, 10^6 cells per ml) [µg/mL]",also measured
O=C(O)c1cn(-c2ccc(O)cc2)c(-c2cc3ccccc3s2)cc1=O,3.13,0.2,≤ 0.05,0.78,0.39,3.13,≤ 0.05,≤ 0.05,≤ 0.05,0.78,0.2,3.13,≤ 0.05,0.78,0.78,0.2,0.39,0.39,0.2,–,–
CN(C)c1ccc(-c2cc(=O)c(C(=O)O)cn2-c2ccc(F)cc2O)cc1,50,–,≤ 0.05,6.25,–,25,0.2,–,0.2,6.25,0.78,12.5,0.39,12.5,–,1.56,–,3.13,0.78,6.25,"MIC ([2]; GN76, 20 h): 1.56 µg/mL; MIC [5]: 1.56 µg/mL; MIC [8]: 1.56 µg/mL; MIC [17]: 1.56 µg/mL"
O=C(O)c1cn(-c2ccc(F)cc2)c(-c2sccc2-c2ccc([N+](=O)[O-])cc2)cc1=O,12.5,3.13,0.2,6.25,3.13,25,0.1,0.2,0.28,6.25,–,12.5,0.39,12.5,–,1.56,3.13,–,0.78,6.25,"MIC [11]: 1.56 µg/mL; MIC ([18]; T216, 20 h, 10^6 cells per ml): 1.56 µg/mL"
CN(C)c1ccc(-c2cc(=O)c(C(=O)O)cn2-c2cccc(O)c2)cc1,12.5,0.78,≤ 0.05,3.13,0.39,6.25,0.2,0.1,0.2,1.56,0.39,12.5,0.2,6.25,–,0.39,0.78,–,0.39,3.13,"MIC ([18]; T216, 20 h, 10^6 cells per ml): 1.56 µg/mL"
O=C(O)c1cn(-c2ccc(O)cc2)c(-c2ccc3ccccc3c2)cc1=O,6.25,0.39,≤ 0.05,1.56,0.39,3.13,≤ 0.05,≤ 0.05,≤ 0.05,1.56,0.2,6.25,0.1,–,0.78,0.39,0.39,0.39,0.2,–,"MIC ([14]; S68, 20 h): 1.56 µg/mL"
O=C(O)c1cn(-c2ccc(O)cc2)c(-c2ccc(-c3ccccc3)s2)cc1=O,–,0.39,≤ 0.05,1.56,0.78,–,≤ 0.05,≤ 0.05,≤ 0.05,3.13,0.39,–,≤ 0.05,–,0.78,0.78,–,0.78,0.2,–,"MIC ([1]; GN918, 20 h): 1.56 µg/mL; MIC ([6]; GN3379, 20 h): 3.13 µg/mL; MIC ([12]; IFO3445, 20 h): 3.13 µg/mL; MIC ([14]; S68, 20 h): 3.13 µg/mL; MIC [17]: 1.56 µg/mL"
CN(C)c1ccc(-c2cc(=O)c(C(=O)O)cn2-c2cccc3c(O)cccc23)cc1,–,1.56,≤ 0.05,6.25,1.56,> 100,≤ 0.05,≤ 0.05,0.1,6.25,0.39,12.5,1.56,12.5,3.13,0.78,1.56,3.13,0.39,–,"MIC ([1]; GN918, 20 h): 6.25 µg/mL"
O=C(O)c1cn(-c2ccc(F)cc2)c(/C=C/c2ccccc2)cc1=O,50,3.13,0.39,25,–,25,3.13,1.56,3.13,12.5,3.13,50,0.78,25,–,6.25,–,–,1.56,12.5,"MIC [5]: 12.5 µg/mL; MIC [17]: 12.5 µg/mL; MIC ([18]; T216, 20 h, 10^6 cells per ml): 12.5 µg/mL"
